The results in this text go back to publication PMC5108032, “Discovery of a Quinoline-4-carboxamide Derivative with a Novel Mechanism of Action, Multistage Antimalarial Activity, and Potent in Vivo Efficacy” (Journal of Medicinal Chemistry, 2016).

The structures appear in SMILES notation.

As a reminder, the EC50 is the concentration that produces a half-maximal response. Low readings indicate greater potency, high ones weaker potency.

The nature of series [1]: Intrinsic clearance in rat hepatocytes. The series is classed as in vitro ADME.
Series [2] is described as follows: Mammalian cell growth inhibition counter-screen (resazurin). It counts as cell-based, human. The note with it: human, MRC-5 cells (normal diploid human fibroblasts). The method, then: Plasmodium falciparum screening
Assays against P. falciparum were conducted as previously described.1 Cultures of the widely-used malaria reference strain of chloroquine-sensitive Plasmodium falciparum strain 3D7 were maintained in a 5% suspension of human red blood cells (obtained from East of Scotland Blood Transfusion Service, Ninewells Hospital, Dundee) cultured in RPMI 1640 medium (pH 7.3) supplemented with 0.5% Albumax II (Gibco Life Technologies, San Diego, CA), 12 mM sodium bicarbonate, 0.2 mM hypoxanthine and 20 mg/L gentamicin at 37°C, in a humidified atmosphere of 1% O 2, 3% CO2 with a balance of nitrogen. Growth inhibition was quantified using a fluorescence assay utilising the binding of SYBR green to double stranded DNA, which emits a fluorescent signal at 528 nm after excitation at 485nm.2 Mefloquine (potency range 30-60 nM) was used as a drug control to monitor the quality of the assay (Z’ = 0.6 to 0.8, Signal to background >3, where Z’ is a measure of the discrimination between the positive and negative controls on a screen plate). A 96-well [3H]-Hypoxanthine incorporation assay was also developed as a secondary assay in order to validate compounds from the initial screen in an orthogonal platform.3 Compound bioactivity from both assays was expressed as […]
P. falciparum (panel of resistant strains) in vitro assay. (Swiss TPH)
All Plasmodium strains were cultured according to Trager and Jensen and are described at www.beiresources.org (resistant strains: K1, W2, 7G8, TM90C2A, D6 and V1/S, sensitive strain:
NF54). EC50 values were determined in vitro by measuring incorporation of the nucleic acid precursor […]
Mammalian Cell Growth Inhibition assay
A counter-screen against normal diploid human fibroblasts (MRC-5 cell line) was carried out to exclude non-selective, and toxic compounds. The assay was essentially carried out as described previously.4 Cells were plated and incubated overnight to allow them to adhere as monolayers. A working stock of each test compound was transferred to an intermediate 384-well plate and pre-diluted with minimum essential media (MEM). The pre-diluted stocks were then transferred onto the cell monolayers, and the plates were incubated for 68 h. Resazurin, to a final concentration of 50 μM, was added to each well, after which plates were incubated for a further 3 h and measured for fluorescence (λex=528 nm, λem=590 nm)
In vitro Cell Assay Data Analysis.
All data was processed using IDBS ActivityBase® raw data was converted into per cent inhibition through linear regression by setting the high inhibition control as 100% and the no inhibition control as 0%. Quality control criteria for passing plates were as follows: Z’> 0.5, S:B> 3, %CV(no inhibition < 15 . The formula used to calculate Z’ is 1 3× (St D e v _ hi gh + St D e v _ low) . […]
All EC50 Curve fitting was undertaken using XLFit version 4.2 using Model 205 with the following 4 parametric equation: y = A + B A A + ($-&) ,where A=% inhibition at bottom, B=% […]
inhibition at top, C= EC50, D= slope, x= inhibitor concentration and y= % inhibition. […]
reach 100% of inhibition, B was fixed to 100 only when at least 50% of inhibition was reached.
Plasmodium falciparum late stage (IV-V) gametocyte high content imaging assay Plasmodium falciparum NF54-pfs16-LUC-GFP stage IV-V Gametocytes were produced as described previously.5 Compounds were solubilized in DMSO and serially diluted in three concentrations per log standard curves in DM SO. One µl of compound was subsequently diluted in 25µl of water (4% DMSO) and 5µl transferred into the base of 384 well PerkinElmer CellCarrier plates. Forty-five µl of stage IV-V gametocytes (10%P in 0.1%H) were added to the imaging plates which were in turn sealed with a gas permeable membrane and incubated at 37°C, 5% CO 2, 5% O2, 90% N2 and 60% humidity […]
Post incubation, 5µl of MitoTracker® Red CM -H2Xros (MTR) solution (0.66ug/ml) was added to all wells and the plates incubated for a further 16hours. […]

On to `O=C(NCCN1CCCC1)c1cc(NCCC2CCOCC2)nc2ccc(Cl)cc12` [Compound 30, 6-Chloro-N-(2-(pyrrolidin-1-yl)ethyl)-2-((2-(tetrahydro-2H-pyran-4-yl)ethyl)amino)quinoline-4-carboxamide], for which, in series [1], the “intrinsic clearance in rat hepatocytes (Cli)” value is 3 mL min^–1 g^–1. For the compound `O=C(NCCN1CCCC1)c1cc(-c2ccc(CN3CCOCC3)cc2Cl)nc2ccc(F)cc12` [Compound 42, 2-(2-Chloro-4-(morpholinomethyl)phenyl)-6-fluoro-N-(2-(pyrrolidin-1-yl)ethyl)quinoline-4-carboxamide], the EC50 at 68 h in series [2] is above 50 µM.
